Literature values, collected in paper PMC4061760 (Tetrahedron, 2009).

Test system: Plk1 PBD
Settings: 5-mer phosphopeptide

Substance: PLHSpT [Peptide 22]
- interaction with the Plk1 PBD: specifically interacts with the Plk1 PBD with high affinity
